{"source": "patent EP2893919B1", "about": "“Formulation of aprepitant with enhanced solubility” (SANOFI, priority 2014, dated 2015)", "origin": "cited, not measured here", "key": {"[1]": {"settings": "pH range 2 to 10"}}, "data": [{"smiles": "C[C@@H](O[C@H]1OCCN(Cc2n[nH]c(=O)[nH]2)[C@H]1c1ccc(F)cc1)c1cc(C(F)(F)F)cc(C(F)(F)F)c1", "note": "[Aprepitant, 5-([(2R,3S)-2-((R)-1-[3,5-bis(trifluoromethyl)phenyl]ethoxy)-3-(4-fluorophenyl)morpholino]methyl)-1H-1,2,4-triazol-3(2H)-one]", "values": [{"measurement": "solubility in water", "setting": "[1]", "value": "< 10", "unit": "µg/mL"}, {"measurement": "Caco-2 permeability", "setting": "Caco-2", "value": 7.85, "unit": "×10⁻⁶ cm/s"}]}]}
